#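 Tested at 5 concentrations; 48 h exposure; 96-well plates; endpoints linearly interpolated, else capped at highest concentration. TGI: concentration producing complete growth inhibition.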
# Test system: KM12 colon
# Assay: NCI-60 cell line screen, 48 h
row,SMILES,TGI
1,C=CCNC1=C2C[C@@H](C)C[C@@H](OC)[C@@H](OC(=O)CCCN)[C@H](C)/C=C(\C)[C@@H](OC(N)=O)[C@H](OC)/C=C\C=C(/C)C(=O)NC(=CC1=O)C2=O,19.2 µM
2,O=C1NC(=O)C(c2c[nH]c3cc(Br)ccc23)=C1c1cn(C(c2ccccc2)(c2ccccc2)c2ccccc2)cn1,> 100 µM
3,CC(C)=CCS(=O)c1ccccc1NC1=CC(=O)CC(C)(C)C1 (stereo not drawn),> 100 µM
4,COC(=O)C1=C(C)NC(C)=C(C(=O)OC)C1c1ccc(/[N+]([O-])=C/c2ccccc2)cc1,> 100 µM
5,O=C(O)c1nc(-c2ccccn2)c(-c2ccccn2)nc1C(=O)O,17.9 µM
6,CC1(C#N)CC(C)(C)C(/C=C2/CC(C)(C)C(/C=C3/OC(=N)CC3(C)C)=N2)=N1 (stereo not drawn),56.2 µM
7,C#CCn1ncc2c(SCc3ccccc3)ncnc21,> 100 µM
8,CCOC(=O)CC1c2ccc(O)cc2OC(=O)C1c1ccc([N+](=O)[O-])cc1 (stereo not drawn),97.8 µM

# Test system: HS 578T breast
# Assay: NCI-60 cell line screen, 48 h
row,SMILES,TGI
1,O=C(C(=O)N1CCc2ccccc21)c1c[nH]c2ccccc12,> 10 µM
2,CC(=O)N(C(=O)CC(=O)N/N=C\c1ccc(Br)c(N(CCC#N)CCC#N)c1)c1ccc(Cl)cc1,> 100 µM
3,COc1ccc(CCNC2=CC(=O)c3ncccc3C2=O)cc1OC,5.32 µM
4,CC1(C)OCC2OC3(c4nc(C#N)c(N)o4)OC(C)(C)OC3C2O1 (stereo not drawn),> 100 µM
5,CCC1OC2C(CC=C(C)C)=C3OC(C)(O)C(C)(CC)C(OC(=O)c4ccccc4)C3=C3OC(=O)C=C1C32 (stereo not drawn),> 100 µM
6,CN1CCOC1(C)CO (stereo not drawn),> 100 µM
7,COn1cc(C=O)c2ccccc21,> 100 µM
8,C=CCNC1=C2C[C@@H](C)C[C@@H](OC)[C@@H](OC(=O)CCCN)[C@H](C)/C=C(\C)[C@@H](OC(N)=O)[C@H](OC)/C=C\C=C(/C)C(=O)NC(=CC1=O)C2=O,49.5 µM
9,O=C1NC(=O)C(c2c[nH]c3cc(Br)ccc23)=C1c1cn(C(c2ccccc2)(c2ccccc2)c2ccccc2)cn1,> 100 µM
10,CC(C)=CCS(=O)c1ccccc1NC1=CC(=O)CC(C)(C)C1 (stereo not drawn),> 100 µM
11,COC(=O)C1=C(C)NC(C)=C(C(=O)OC)C1c1ccc(/[N+]([O-])=C/c2ccccc2)cc1,> 100 µM
12,O=C(O)c1nc(-c2ccccn2)c(-c2ccccn2)nc1C(=O)O,> 72.6 µM
13,CC1(C#N)CC(C)(C)C(/C=C2/CC(C)(C)C(/C=C3/OC(=N)CC3(C)C)=N2)=N1 (stereo not drawn),58.9 µM
14,C#CCn1ncc2c(SCc3ccccc3)ncnc21,> 100 µM
15,CCOC(=O)CC1c2ccc(O)cc2OC(=O)C1c1ccc([N+](=O)[O-])cc1 (stereo not drawn),> 100 µM

# Test system: A549 NSCLC
# Assay: NCI-60 cell line screen, 48 h
row,SMILES,TGI
1,O=C(C(=O)N1CCc2ccccc21)c1c[nH]c2ccccc12,> 10 µM
2,CC(=O)N(C(=O)CC(=O)N/N=C\c1ccc(Br)c(N(CCC#N)CCC#N)c1)c1ccc(Cl)cc1,> 100 µM
3,COc1ccc(CCNC2=CC(=O)c3ncccc3C2=O)cc1OC,2.51 µM
4,CC1(C)OCC2OC3(c4nc(C#N)c(N)o4)OC(C)(C)OC3C2O1 (stereo not drawn),> 100 µM
5,CCC1OC2C(CC=C(C)C)=C3OC(C)(O)C(C)(CC)C(OC(=O)c4ccccc4)C3=C3OC(=O)C=C1C32 (stereo not drawn),> 100 µM
6,CN1CCOC1(C)CO (stereo not drawn),> 100 µM
7,COn1cc(C=O)c2ccccc21,> 100 µM
8,C=CCNC1=C2C[C@@H](C)C[C@@H](OC)[C@@H](OC(=O)CCCN)[C@H](C)/C=C(\C)[C@@H](OC(N)=O)[C@H](OC)/C=C\C=C(/C)C(=O)NC(=CC1=O)C2=O,32.8 µM
9,O=C1NC(=O)C(c2c[nH]c3cc(Br)ccc23)=C1c1cn(C(c2ccccc2)(c2ccccc2)c2ccccc2)cn1,27.3 µM
10,CC(C)=CCS(=O)c1ccccc1NC1=CC(=O)CC(C)(C)C1 (stereo not drawn),> 100 µM
11,COC(=O)C1=C(C)NC(C)=C(C(=O)OC)C1c1ccc(/[N+]([O-])=C/c2ccccc2)cc1,> 100 µM
12,O=C(O)c1nc(-c2ccccn2)c(-c2ccccn2)nc1C(=O)O,11.9 µM
13,CC1(C#N)CC(C)(C)C(/C=C2/CC(C)(C)C(/C=C3/OC(=N)CC3(C)C)=N2)=N1 (stereo not drawn),> 100 µM
14,C#CCn1ncc2c(SCc3ccccc3)ncnc21,> 100 µM
15,CCOC(=O)CC1c2ccc(O)cc2OC(=O)C1c1ccc([N+](=O)[O-])cc1 (stereo not drawn),> 100 µM

# Test system: MDA-MB-231 breast
# Assay: NCI-60 cell line screen, 48 h
row,SMILES,TGI
1,O=C(C(=O)N1CCc2ccccc21)c1c[nH]c2ccccc12,> 10 µM
2,CC(=O)N(C(=O)CC(=O)N/N=C\c1ccc(Br)c(N(CCC#N)CCC#N)c1)c1ccc(Cl)cc1,> 100 µM
3,COc1ccc(CCNC2=CC(=O)c3ncccc3C2=O)cc1OC,3.72 µM
4,CC1(C)OCC2OC3(c4nc(C#N)c(N)o4)OC(C)(C)OC3C2O1 (stereo not drawn),> 100 µM
5,CCC1OC2C(CC=C(C)C)=C3OC(C)(O)C(C)(CC)C(OC(=O)c4ccccc4)C3=C3OC(=O)C=C1C32 (stereo not drawn),49.1 µM
6,CN1CCOC1(C)CO (stereo not drawn),> 100 µM
7,COn1cc(C=O)c2ccccc21,> 100 µM
8,C=CCNC1=C2C[C@@H](C)C[C@@H](OC)[C@@H](OC(=O)CCCN)[C@H](C)/C=C(\C)[C@@H](OC(N)=O)[C@H](OC)/C=C\C=C(/C)C(=O)NC(=CC1=O)C2=O,33.5 µM
9,O=C1NC(=O)C(c2c[nH]c3cc(Br)ccc23)=C1c1cn(C(c2ccccc2)(c2ccccc2)c2ccccc2)cn1,21.4 µM
10,CC(C)=CCS(=O)c1ccccc1NC1=CC(=O)CC(C)(C)C1 (stereo not drawn),> 100 µM
11,COC(=O)C1=C(C)NC(C)=C(C(=O)OC)C1c1ccc(/[N+]([O-])=C/c2ccccc2)cc1,> 100 µM
12,O=C(O)c1nc(-c2ccccn2)c(-c2ccccn2)nc1C(=O)O,30.5 µM
13,CC1(C#N)CC(C)(C)C(/C=C2/CC(C)(C)C(/C=C3/OC(=N)CC3(C)C)=N2)=N1 (stereo not drawn),> 100 µM
14,C#CCn1ncc2c(SCc3ccccc3)ncnc21,> 100 µM
15,CCOC(=O)CC1c2ccc(O)cc2OC(=O)C1c1ccc([N+](=O)[O-])cc1 (stereo not drawn),48.6 µM

# Test system: UACC-62 melanoma
# Assay: NCI-60 cell line screen, 48 h
row,SMILES,TGI
1,O=C(C(=O)N1CCc2ccccc21)c1c[nH]c2ccccc12,> 10 µM
2,CC(=O)N(C(=O)CC(=O)N/N=C\c1ccc(Br)c(N(CCC#N)CCC#N)c1)c1ccc(Cl)cc1,> 100 µM
3,COc1ccc(CCNC2=CC(=O)c3ncccc3C2=O)cc1OC,1.24 µM
4,CC1(C)OCC2OC3(c4nc(C#N)c(N)o4)OC(C)(C)OC3C2O1 (stereo not drawn),> 100 µM
5,CCC1OC2C(CC=C(C)C)=C3OC(C)(O)C(C)(CC)C(OC(=O)c4ccccc4)C3=C3OC(=O)C=C1C32 (stereo not drawn),> 100 µM
6,CN1CCOC1(C)CO (stereo not drawn),> 100 µM
7,COn1cc(C=O)c2ccccc21,> 100 µM
8,C=CCNC1=C2C[C@@H](C)C[C@@H](OC)[C@@H](OC(=O)CCCN)[C@H](C)/C=C(\C)[C@@H](OC(N)=O)[C@H](OC)/C=C\C=C(/C)C(=O)NC(=CC1=O)C2=O,31.8 µM
9,O=C1NC(=O)C(c2c[nH]c3cc(Br)ccc23)=C1c1cn(C(c2ccccc2)(c2ccccc2)c2ccccc2)cn1,> 100 µM
10,CC(C)=CCS(=O)c1ccccc1NC1=CC(=O)CC(C)(C)C1 (stereo not drawn),> 100 µM
11,COC(=O)C1=C(C)NC(C)=C(C(=O)OC)C1c1ccc(/[N+]([O-])=C/c2ccccc2)cc1,> 100 µM
12,O=C(O)c1nc(-c2ccccn2)c(-c2ccccn2)nc1C(=O)O,6.27 µM
13,CC1(C#N)CC(C)(C)C(/C=C2/CC(C)(C)C(/C=C3/OC(=N)CC3(C)C)=N2)=N1 (stereo not drawn),66 µM
14,C#CCn1ncc2c(SCc3ccccc3)ncnc21,> 100 µM
15,CCOC(=O)CC1c2ccc(O)cc2OC(=O)C1c1ccc([N+](=O)[O-])cc1 (stereo not drawn),84.4 µM

# Test system: NCI/ADR-RES ovarian
# Assay: NCI-60 cell line screen, 48 h
row,SMILES,TGI
1,O=C(C(=O)N1CCc2ccccc21)c1c[nH]c2ccccc12,> 10 µM
2,CC(=O)N(C(=O)CC(=O)N/N=C\c1ccc(Br)c(N(CCC#N)CCC#N)c1)c1ccc(Cl)cc1,> 100 µM
3,COc1ccc(CCNC2=CC(=O)c3ncccc3C2=O)cc1OC,9.32 µM
4,CC1(C)OCC2OC3(c4nc(C#N)c(N)o4)OC(C)(C)OC3C2O1 (stereo not drawn),> 100 µM
5,CCC1OC2C(CC=C(C)C)=C3OC(C)(O)C(C)(CC)C(OC(=O)c4ccccc4)C3=C3OC(=O)C=C1C32 (stereo not drawn),> 100 µM
6,CN1CCOC1(C)CO (stereo not drawn),> 100 µM
7,COn1cc(C=O)c2ccccc21,> 100 µM
8,C=CCNC1=C2C[C@@H](C)C[C@@H](OC)[C@@H](OC(=O)CCCN)[C@H](C)/C=C(\C)[C@@H](OC(N)=O)[C@H](OC)/C=C\C=C(/C)C(=O)NC(=CC1=O)C2=O,> 100 µM
9,O=C1NC(=O)C(c2c[nH]c3cc(Br)ccc23)=C1c1cn(C(c2ccccc2)(c2ccccc2)c2ccccc2)cn1,> 100 µM
10,CC(C)=CCS(=O)c1ccccc1NC1=CC(=O)CC(C)(C)C1 (stereo not drawn),> 100 µM
11,COC(=O)C1=C(C)NC(C)=C(C(=O)OC)C1c1ccc(/[N+]([O-])=C/c2ccccc2)cc1,> 100 µM
12,O=C(O)c1nc(-c2ccccn2)c(-c2ccccn2)nc1C(=O)O,> 23.1 µM
13,CC1(C#N)CC(C)(C)C(/C=C2/CC(C)(C)C(/C=C3/OC(=N)CC3(C)C)=N2)=N1 (stereo not drawn),54 µM
14,C#CCn1ncc2c(SCc3ccccc3)ncnc21,> 100 µM
15,CCOC(=O)CC1c2ccc(O)cc2OC(=O)C1c1ccc([N+](=O)[O-])cc1 (stereo not drawn),72.6 µM

# Test system: SNB-75 CNS
# Assay: NCI-60 cell line screen, 48 h
row,SMILES,TGI
1,O=C(C(=O)N1CCc2ccccc21)c1c[nH]c2ccccc12,> 10 µM
2,CC(=O)N(C(=O)CC(=O)N/N=C\c1ccc(Br)c(N(CCC#N)CCC#N)c1)c1ccc(Cl)cc1,> 100 µM
3,COc1ccc(CCNC2=CC(=O)c3ncccc3C2=O)cc1OC,2.13 µM
4,CC1(C)OCC2OC3(c4nc(C#N)c(N)o4)OC(C)(C)OC3C2O1 (stereo not drawn),> 100 µM
5,CCC1OC2C(CC=C(C)C)=C3OC(C)(O)C(C)(CC)C(OC(=O)c4ccccc4)C3=C3OC(=O)C=C1C32 (stereo not drawn),> 100 µM
6,CN1CCOC1(C)CO (stereo not drawn),> 100 µM
7,COn1cc(C=O)c2ccccc21,> 95.1 µM
8,C=CCNC1=C2C[C@@H](C)C[C@@H](OC)[C@@H](OC(=O)CCCN)[C@H](C)/C=C(\C)[C@@H](OC(N)=O)[C@H](OC)/C=C\C=C(/C)C(=O)NC(=CC1=O)C2=O,22.2 µM
9,O=C1NC(=O)C(c2c[nH]c3cc(Br)ccc23)=C1c1cn(C(c2ccccc2)(c2ccccc2)c2ccccc2)cn1,48.8 µM
10,CC(C)=CCS(=O)c1ccccc1NC1=CC(=O)CC(C)(C)C1 (stereo not drawn),> 100 µM
11,COC(=O)C1=C(C)NC(C)=C(C(=O)OC)C1c1ccc(/[N+]([O-])=C/c2ccccc2)cc1,> 100 µM
12,O=C(O)c1nc(-c2ccccn2)c(-c2ccccn2)nc1C(=O)O,11.6 µM
13,CC1(C#N)CC(C)(C)C(/C=C2/CC(C)(C)C(/C=C3/OC(=N)CC3(C)C)=N2)=N1 (stereo not drawn),> 100 µM
14,C#CCn1ncc2c(SCc3ccccc3)ncnc21,> 100 µM
15,CCOC(=O)CC1c2ccc(O)cc2OC(=O)C1c1ccc([N+](=O)[O-])cc1 (stereo not drawn),56 µM

# — PubChem BioAssay (NCI)
